Where only a bound is given, the exact number is not on record here.

Data set [1] relates to cytokine mRNAs (TNFα, TGF-β1, IL1β) in THP-1 cells. The data set can be described thus: Cytokine mRNA expression by THP-1 cells (RNase protection assay). To be noted: 100 μM, 48 h. It counts as cell-based, human. The source says:
Hepatic cytokine mRNAs were quantitated using RNase protection assays, as follows. In vitro transcribed [α-^32P]-UTP labeled -antisense cytokine probes were generated using cytokine multi-probe template kits: Mouse mCK-2 (catalog # 45002P) and Mouse mCK-3 (catalog #45003P) (PharMingen International) and a MAXIscript in vitro transcription kit (catalog #1314) using T7 RNA polymerase per manufacturer instructions. The radiolabeled probes were eluted through G25 Sephadex columns (Boehringer Mannheim) to remove unincorporated nucleotides. RNase protection assays were performed with HybSpeed RPA kits (catalog #1412) (Ambion Inc.) according to the manufacturers specifications. For each reaction, 20 fig of total RNA was hybridized to approximately 50,000 cpm of the antisense cytokine probes and digested with a mixture of RNase A and RNase T1. The protected RNA fragments were separated via a 5% denaturing acrylamide gel. PhosporImager (Molecular Dynamics) analysis was used to visualize the protected RNA fragments. […] Cells were harvested and polyA mRNA extracted, as described above. The content of human cytokines mRNAs were quantited by RNase protection assays, as described above except human template kits were used (Human hCK-2-catalog # 45032P and Human hCK-3-catalog # 45033P) (PharMingen International).

Data set [2] has as its system CYP7A1 mRNA expression by rat hepatoma L35 cells. As to the kind of experiment: Direct treatment of L35 cells, CYP7A1 mRNA relative to β-actin. It counts as cell-based.
The next data set deals with CYP7A1. To be noted: bile acid infused; Heuman et al., 1989; cited from earlier work.
The subject of a further data set is hepatic CYP7A1 mRNA. The data set can be described thus: Hepatic CYP7A1 mRNA relative to GAPDH in C57BL/6 mice on chow or bile acid-containing atherogenic diet. Format: in vivo, mouse. The conditions noted are these: chow-fed mice, 1 mg/ml daily by oral gavage, p=ns.

Source text for hepatic CYP7A1 mRNA: Female C3H/HeJ and [MUT] mice 10-12 weeks old (Jackson Laboratory, Bar Harbor, Me.) were housed in a room with a normal light cycle (lights on from 0600 to 1800) fed water ad libitum with either normal Purina breeder chow or ground Purina breeder chow supplemented with 20% olive oil, 2% cholesterol and 0.5% taurocholic acid (bile acid-contaning atherogenic diet) and water ad libitum. Mice were maintained on this diet for 3 weeks. After 3 weeks, mice were sacrificed at 0900. […] Mice were sacrificed at 0900 and blood was obtained for subsequent analysis. Livers were extracted for RNA, and polyA RNA was isolated, as described (Dueland, et al., 1993, J. Lipid.Res. 34:923-931; Dueland, et al., 1997, J. Lipid Res. 38:1445-1453). Poly A MRNA was blotted onto nitrocellulose and probed with ^32P-labeled cDNA encoding rat CYP7A1 and GAPDH (Duelandet al., 1993, J. Lipid Res. 34:923-931; Dueland, et al., 1997, J. Lipid Res. 38:1445-1453). The relative abundance of CYP7A1 mRNA to GAPDH mRNA was determined using Phosphorimager quantitation (Molecular Biosystems).

For `C[C@H](CCC(=O)O)[C@H]1CC[C@H]2[C@@H]3[C@H](O)C[C@@H]4C[C@H](O)CC[C@]4(C)[C@H]3CC[C@]12C` [CDCA, chenodeoxycholic acid], the “induction of TNFα, TGF-β1 and IL1β mRNAs by THP-1 cells” value in data set [1] was above 10 fold. The “CYP7A1 expression by L35 cells” value in data set [2] (CDCA 100 μM added directly to L35 cells, 24 hours) is given as “unaffected”. The “ability to repress CYP7A1” value in the data set on CYP7A1 is on record as “potent repressor”. In the case of `C[C@H](CCC(=O)O)[C@H]1CC[C@H]2[C@@H]3[C@@H](O)C[C@@H]4C[C@H](O)CC[C@]4(C)[C@H]3CC[C@]12C` [UDCA, ursodeoxycholic acid], the “ability to repress CYP7A1” value in the data set with CYP7A1 is “does not repress”. In the case of `CN(CCOc1ccc(CC2SC(=O)NC2=O)cc1)c1ccccn1` (stereo not drawn) [rosiglitazone], the “decrease in the expression of CYP7A1” value in the data set on hepatic CYP7A1 mRNA was found to be 30%. Regarding TNFa, the “expression of CYP7A1 by L35 cells” value in data set [2] (human TNFa alone, 24 h) was “repressed”.

These data come from patent publication US20020006942A1, “Methods of treating liver disorders and disorders associated with liver function” (priority 2000, published 2002).
